The text below walks through data of PubChem BioAssay AID2060905 (Molecular Pharmacology Branch, DTP, NCI, 2025).

The test system of this experiment is 282377-053-R-J1-PDC complex spheroid viability. As to the kind of experiment: Anticancer human tumor 282377-053-R-J1-PDC patient-derived colon adenocarcinoma cell line growth inhibition [RAS]. The conditions noted are these: for viability, T/C: stronger effect = lower value. The text has this:
RAS pathway inhibitors in Combinations in Complex Spheroids
A high-throughput screen of multi-cell type tumor spheroids was designed to identify active combinations of RAS pathway inhibitors and targeted small molecules. Complex spheroids include a stromal component modeled by human endothelial cells (HUVEC) and fibroblasts modeled by human mesenchymal stem cells (MSCs). The concentration ranges selected for each drug and investigational agent were based upon clinically achievable concentrations if the clinical Cmax of the agent was known.
Compounds. The drugs and investigational agents: abemaciclib (NSC768073), cobimetinib (NSC768068), divarasib (GDC6063, NSC841802), docetaxel (NSC628503), GDC-1971 (RLY-1971, NSC841576), gemcitabine (NSC613327), inavolisib (NSC800729), ipatasertib (NSC767898), KB-0742 (NSC834161), MRTX-1133 (NSC836407), osimertinib (NSC779217), RMC-4630 (NSC839698), RMC-6236 (NSC851965), RMC-6291 (NSC852671), Ro-3306 (NSC812927), sapanisertib (NSC764658), SN-38 (NSC673596), staurosporine (NSC755774), SY5609 (NSC837396), and tovorafenib (DAY101, NSC766906), were obtained from the National Cancer Institute (NCI) Developmental Therapeutics Program Chemical Repository. The FDA-approved anticancer drug set is available from the NCI Developmental Therapeutics Program. […] The stock solutions were prepared in dimethyl sulfoxide (DMSO, Sigma-Aldrich, St. Louis, MO, cat. D2650) at 800-fold the tested concentration and stored at -70 degrees C prior to their use. All drugs and investigational agents were tested over a range starting from a high concentration at or near the clinical Cmax and decreasing in half-log increments. If the clinical Cmax for an agent had not been determined, the highest concentration tested was 10 microM.
Cell Culture. All cells were maintained in an incubator at 37 degrees C and 5% CO2 with 95% humidity. The PDC lines were cultured according to standard operating procedures established by the NCI PDMR. All PDCs were thawed and cultured in Matrigel-coated flasks prepared with a working solution of 1X Ham's F-12 nutrient mix, without supplementation (Invitrogen, Waltham, MA, cat. 11765054), 100 U/mL penicillin-streptomycin (Invitrogen, cat. 15140122), and 2.5% Matrigel (Corning Inc., Corning, NY, cat. 354248) for the first three passages. The 362531-283-R-J2-PDC and 782815-120-R-J1-PDC lines were cultured in 6C/Colon 1B media, which includes advanced DMEM/F-12 (Thermo Fisher Scientific, cat. 12634028), 10 mM HEPES (Thermo Fisher Scientific, cat. 15630080), 1X GlutaMAX supplement (Thermo Fisher Scientific, cat. 35050061), 0.1 mg/mL primocin (InvivoGen, San Diego, CA, cat. ant-pm-2), 10% defined fetal bovine serum, heat inactivated (HyClone Laboratories Inc., Logan, UT, cat. SH30070.03HI), 50% L-WRN conditioned media (ATCC, cat. CRL-3276), 1.25 mM N-Acetyl-L-cysteine (Sigma-Aldrich, cat. A9165), 10 mM nicotinamide (Sigma-Aldrich, cat. N0636), 1X B-27 supplement (Thermo Fisher Scientific, cat. 17504044), 1X N-2 supplement (Thermo Fisher Scientific, cat. 17502048), 50 ng/mL human EGF (Thermo Fisher Scientific, cat. PHG0311), and 10 microM Y-27632 dihydrochloride (Tocris Bioscience, cat. 1254). The K12877-001-R-J1-PDC line was cultured in 6I media, which includes all 6C/Colon 1B media plus 10 ng/mL human FGF-10 (PeproTech, cat. 100-26), 1 ng/mL human FGF-2 (PeproTech, cat. 100-18B), 1 µM prostaglandin E2 (Tocris Bioscience, cat. 2296), […] hydrocortisone (Sigma-Aldrich, cat. H4001), and […] bovine insulin (Sigma-Aldrich, cat. I6634). The K86415-001-R-J1-PDC line was cultured in 6D media, which includes all 6C/Colon 1B media components minus the L-WRN conditioned media. The 485176-168-R4-J1-PDC was cultured in PANC media, which includes all 6C/Colon 1B media plus 100 ng/mL human FGF-10 (PeproTech, cat. 100-26), 500 nM SB-431542 (Selleckchem, cat. S1067), and 10 nM gastrin (Tocris Bioscience, cat. 3006). […]

The mark [1] stands for this setting: compound alone, run of 06/10/2024.
The mark [2] stands for this setting: compound alone, run of 05/20/2024.

Values joined by “and” are separate entries in the source; they are usually repeats but may differ in a detail not shown here. Identical values can stand only once. Some results are limits rather than exact numbers.
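Further: spheroids exposed to agents for seven days before readout.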
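Wherever viability, T/C is given: luminescence viability as percent of DMSO vehicle control wells.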

On to `C#Cc1c(F)ccc2cc(O)cc(-c3ncc4c(N5CC6CCC(C5)N6)nc(OCC56CCCN5CC(F)C6)nc4c3F)c12` (stereo not drawn), for which the viability, T/C (usually the ratio of treated to control) reads like this: (compound 0.1 µM) 104% [middle of 8 runs]; (compound 0.316 µM) 102% [middle of 8 runs]; (compound 3.16 µM) 111% [middle of 8 runs]; (compound 10 µM) 104% [middle of 8 runs]. The IC50 (as a rule, the concentration that inhibits the measured activity by half) under setting [1] was > 10 µM.
On to `C=CC(=O)N1CCN(c2nc(OCC3CCCN3C)nc3c(F)c(-c4nc(N)cc(C)c4C(F)(F)F)c(Cl)cc23)C(C)C1` (stereo not drawn), for which the viability, T/C is 105% [middle of 12 runs] (compound 0.0316 µM) and 100% [middle of 12 runs] (compound 0.316 µM). For the same compound, the IC50 under setting [1] was > 1 µM and the IC50 (curve of compound) is > 1 µM.
On to `C=CC(=O)Nc1cc(Nc2nccc(-c3cn(C)c4ccccc34)n2)c(OC)cc1N(C)CCN(C)C`, for which the viability, T/C reads like this: (compound 0.01 µM) 98.4% [middle of 4 runs]; (compound 0.0316 µM) 91.6% [middle of 4 runs]; (compound 1 µM) 99.8% [middle of 4 runs]. Also, the IC50 (curve of compound) is > 1 µM.
On to `CC(C)NCC(C(=O)N1CCN(c2ncnc3c2C(C)CC3O)CC1)c1ccc(Cl)cc1` (stereo not drawn), for which the viability, T/C is 95.3% [middle of 4 runs] (compound 0.0316 µM), 94.8% [middle of 4 runs] (compound 1 µM), 90.4% [middle of 4 runs] (compound 3.16 µM) and 80.6% [middle of 4 runs] (compound 10 µM). In addition, for the setting “curve of compound”, the IC50 is > 10 µM.
`CC(C)n1nc(-c2ccc3oc(N)nc3c2)c2c(N)ncnc21`: the viability, T/C (compound 0.000316 µM) is 91.6% [middle of 4 runs]; the viability, T/C (compound 0.001 µM) is 112% and 102% (2×) and 89.9%; the viability, T/C (compound 0.00316 µM) was 90.7% [middle of 4 runs]; the viability, T/C (compound 0.01 µM) is 87.2% [middle of 4 runs]; the viability, T/C (compound 0.0316 µM) is 74.9% [middle of 4 runs]; the viability, T/C (compound 0.1 µM) is 51.8% [middle of 4 runs]. Moreover, the IC50 (curve of compound) was > 0.1 µM.
With `CC(Nc1ccc2c(c1)OCCn1cc(N3C(=O)OCC3C(F)F)nc1-2)C(N)=O` (stereo not drawn), the viability, T/C is 94% [middle of 4 runs] (compound 0.0316 µM); 85.7% [middle of 4 runs] (compound 0.316 µM); 87.3% [middle of 4 runs] (compound 1 µM); 93.8% [middle of 4 runs] (compound 3.16 µM); 84.6% [middle of 4 runs] (compound 10 µM). The IC50 (curve of compound) was > 10 µM.
As for `CC1(C)CCC(Nc2ncc(C(F)(F)F)c(-c3c[nH]c4c(P(C)(C)=O)c(C#N)ccc34)n2)CN1` (stereo not drawn), the viability, T/C (compound 0.003 µM) is 102% [middle of 4 runs]; the viability, T/C (compound 0.0949 µM) was 74.2% [middle of 4 runs]; the viability, T/C (compound 0.3 µM) was 75.7% [middle of 4 runs]. Besides, the IC50 (curve of compound) was > 0.3 µM.
As for `CC1(O)CCCC1n1c(=O)c(C(F)F)cc2cnc(NC3CCN(S(C)(=O)=O)CC3)nc21` (stereo not drawn), the viability, T/C was 128% [middle of 4 runs] (compound 0.1 µM); 112% (2×) and 190% and 160% (compound 1 µM); 5.45% [middle of 4 runs] (compound 10 µM). In addition, the IC50 (curve of compound) is 6.64 µM [middle of 4 runs].
Regarding `CCN1CCN(Cc2ccc(Nc3ncc(F)c(-c4cc(F)c5nc(C)n(C(C)C)c5c4)n3)nc2)CC1`, the viability, T/C reads like this: (compound 0.00316 µM) 105% [middle of 4 runs]; (compound 0.01 µM) 107% [middle of 4 runs]; (compound 0.316 µM) 121% and 132% (2×) and 151%; (compound 1 µM) 178% [middle of 4 runs]. In addition, for the setting “curve of compound”, the IC50 is > 1 µM.
For the compound `CCc1c2c(nc3ccc(O)cc13)-c1cc3c(c(=O)n1C2)COC(=O)[C@]3(O)CC`, the viability, T/C by setting is: (compound 0.000949 µM) 106% [middle of 4 runs]; (compound 0.003 µM) 107% (2×) and 119% and 122%. In addition, the IC50 (curve of compound) was > 0.3 µM.
On to `CCn1c(-c2cc(N3CCN(C)CC3)cnc2C(C)OC)c2c3cc(ccc31)-c1csc(n1)CC(NC(=O)C1CC1C)C(=O)N1CCCC(N1)C(=O)OCC(C)(C)C2` (stereo not drawn), for which the viability, T/C is 95.7% [middle of 8 runs] (compound 0.003 µM), 98.4% [middle of 8 runs] (compound 0.00949 µM) and 105% [middle of 8 runs] (compound 0.0949 µM). Besides, under setting [2], the IC50 is > 0.3 µM.
In the case of `CCn1c(-c2cccnc2C(C)OC)c2c3cc(ccc31)N1CCOC(CC(NC(=O)C(C(C)C)N(C)C(=O)C3(F)CCN(C(=O)C#CC(C)(C)N(C)C)CC3)C(=O)N3CCCC(N3)C(=O)OCC(C)(C)C2)C1` (stereo not drawn), the viability, T/C by setting is: (compound 0.000949 µM) 98.8% [middle of 8 runs]; (compound 0.00949 µM) 104% [middle of 8 runs]; (compound 0.03 µM) 102% [middle of 8 runs]; (compound 0.0949 µM) 102% [middle of 8 runs]; (compound 0.3 µM) 102% [middle of 8 runs]. In addition, the IC50 under setting [2] is > 0.3 µM.
On to `C[C@@H](NC(=O)c1ncnc(N)c1Cl)c1ncc(C(=O)Nc2cc(C(F)(F)F)c(Cl)cn2)s1`, for which the viability, T/C was 92.9% [middle of 4 runs] (compound 0.0316 µM); 94.9% [middle of 4 runs] (compound 0.1 µM); 92.8% [middle of 4 runs] (compound 0.316 µM); 94.9% [middle of 4 runs] (compound 1 µM); 81.1% [middle of 4 runs] (compound 3.16 µM); 72.1% [middle of 4 runs] (compound 10 µM). Further, the IC50 (curve of compound) was > 10 µM.
As for `Cc1nc(N2CCC3(CC2)COC(C)C3N)c(CO)nc1Sc1ccnc(N)c1Cl` (stereo not drawn), the viability, T/C was 93.8% and 100% (2×) and 88.5% (compound 0.0316 µM); 94.9% [middle of 4 runs] (compound 0.316 µM); 102% [middle of 4 runs] (compound 1 µM). Moreover, the IC50 (curve of compound) was > 10 µM.
`NC1c2ccccc2OC12CCN(c1cnc3c(N4CCCc5ncccc54)n[nH]c3n1)CC2` (stereo not drawn): the viability, T/C (compound 0.0316 µM) is 98.1% [middle of 4 runs]; the viability, T/C (compound 0.1 µM) is 98.2% [middle of 4 runs]; the viability, T/C (compound 0.316 µM) is 101% [middle of 4 runs]; the viability, T/C (compound 1 µM) was 109% (2×) and 96.3% and 103%; the viability, T/C (compound 3.16 µM) is 97.5% [middle of 4 runs]; the viability, T/C (compound 10 µM) is 89.8% [middle of 4 runs]. In addition, where the note is “curve of compound”, the IC50 was > 10 µM.
On to `Nc1ccn(C2OC(CO)C(O)C2(F)F)c(=O)n1` (stereo not drawn), for which the viability, T/C (compound 0.00316 µM) is 94.8% [middle of 4 runs] and the viability, T/C (compound 0.01 µM) is 101% [middle of 4 runs]. For the setting “curve of compound”, the IC50 is > 1 µM and 0.221 µM and 0.274 µM.
Turning to `O=C(c1ccc(F)c(F)c1Nc1ccc(I)cc1F)N1CC(O)([C@@H]2CCCCN2)C1`, the viability, T/C runs as follows: (compound 0.00316 µM) 75.2% [middle of 4 runs]; (compound 0.1 µM) 53.5% [middle of 4 runs]; (compound 0.316 µM) 28.1% [middle of 4 runs]; (compound 1 µM) 20.8% [middle of 4 runs]. Further, where the note is “curve of compound”, the IC50 was 79.8 nM [middle of 4 runs].
